# Test results: patent publication US20240082311A1, “COMPOSITIONS AND METHODS FOR TREATING SPINAL CORD INJURIES” (ASTERIAS BIOTHERAPEUTICS, INC., priority 2021, published 2024)
# Assays:
# [1] = tested on: subjects with subacute cervical spinal cord injury (C4-C7, AIS A/B); assay: Phase 1/2a cervical SCI dose escalation study: safety, adverse events, MRI; format: in vivo, human
# Method: Study Design. The trial design was an open-label, staggered dose escalation, cross-sequential, multicenter study. Three sequential, escalating doses of AST-OPC1 were administered at a single tie point between 21 and 42 days post-injury to subjects with subacute cervical spinal cord injuries (SCI). Subjects received AST-OPC1 via direct intra-spinal injection using a Syringe Positioning Device (SPD). To prevent rejection of engraftment, low dose tacrolimus was initiated 6 to 12 hours after and intra-spinal injection, and continued for 46 days, tapered from Day 46 to Day 60, and was discontinued at Day 60. Subjects were followed for 1 year following administration of AST-OPC1 under this protocol. Male or female subjects from 18 to 69 years of age at time of consent with sensorimotor complete, traumatic SCI (American Spinal Injury Association Impairment Scale A) or sensorimotor incomplete, traumatic SCI (American Spinal Injury Association Impairment Scale B). […] There was a single spinal cord lesion on a post-stabilization magnetic resonance imaging (MRI) scan, with sufficient visualization of the spinal cord injury epicenter and lesion margins to enable post-injection safety monitoring. Subjects were able to participate in an elective surgical procedure to inject AST-OPC1 21 to 42 days following SCI. Subjects received a single dose of either 2×10^6, 1×10^7, or 2×10^7 AST-OPC1 viable cells by injection, administered 21 to 42 days following SCI. The product was delivered intraoperatively into the spinal cord using the Syringe Positioning Device. The AST-OPC1 batch numbers used in this study were M08D1A, M22D1A and M25D1A. Single administration of AST-OPC1 was provided with 1 year of follow-up. Schematics of the planned study timeline, and subject screening and treatment, are provided in FIG. 6 and FIG. 7, respectively. A schematic diagram of the final open-label, staggered dose-escalation, multicenter Phase 1/2a clinical trial is shown in FIG. 8. An overview of study visits for the one-year protocol is presented in the study schema in FIG. 9.
# A neurological examination was completed using the standardized International Standards for Neurological Classification of Spinal Cord Injury (ISNCSCI) examination for motor and sensory testing and for designation of the American Spinal Injury Association impairment scale. The ISNCSCI is used for efficacy with respect to improved motor function in the extremities, improved sensory function, and/or a descending neurological level. Safety assessments included physical examination, vital signs, ISNCSCI neurological examination, pain questionnaire (International Spinal Cord Injury Pain Basic Data Set, ISCIPBDS), electrocardiogram (ECG), Magnetic Resonance Imaging (MRI), laboratory tests, concomitant medications, and adverse events (AEs). Results for the ISNCSCI were listed for each subject by scheduled visit and analyzed by change in motor level and motor scores as well as other exploratory assessments of arm/hand function, self-care ability and overall volitional performance. Adverse events were tabulated by system organ class and by preferred term within system organ class according to the Medical Dictionary for Regulatory Activities (MedDRA®) Version 18.0. Statistical analysis of the safety data was performed using descriptive statistical methods including AEs incidence, severity and relatedness to AST-OPC1, to the injection procedure for product administration, and concomitant immunosuppression with tacrolimus. The number of laboratory assessments (hematology, clinical chemistry) that were below, within, or above the normal laboratory reference range were summarized for each analyte at scheduled study visits. Vital signs were summarized by calculating the mean, standard deviation, median, and range of values at each of the protocol-specified time points.
# Study Endpoints. […]
# [2] = tested on: participants with neurologically complete thoracic spinal cord injury (T3-T11); assay: Phase 1 thoracic SCI trial (NCT01217008): safety, adverse events; format: in vivo, human; settings: N=5
# Method: Study design. The trial design was an open-label, multicenter study. A single dose of 2×10^6 LCTOPC1 was injected within 7 to 14 days following SCI. Subjects who received LCTOPC1 also received tacrolimus to prevent rejection.
# This study was a Phase 1, multi-center, non-randomized, a single group assignment interventional clinical trial. The Participants were enrolled from one of seven centers in the United States. The study was registered (NCT01217008) and the primary endpoint was safety, as measured by the frequency and severity of adverse events related to LCTOPC1, the injection procedure used to administer LCTOPC1, and/or the concomitant immunosuppression administered. The secondary endpoint was neurological function as measured by sensory scores and lower extremity motor scores on ISNCSCI examinations.
# Safety Assessments. The primary endpoint of the Phase 1 clinical trial was safety, as measured by the frequency and severity of adverse events (AEs) within 1 year of LCTOPC1 injection that were related to LCTOPC1, the injection procedure used to administer LCTOPC1, and/or the concomitant immunosuppression administered. […]
# Definition of an Adverse Event. […] The severity of AEs and the characterization of Serious Adverse Events (SAEs) were evaluated using standard FDA criteria.
# The relationship of AEs to the investigational drug was determined by each site investigator and was categorized as “Possibly Related” based on the following criteria: 1) the AE was reasonably related in time with LCTOPC1 exposure, the injection procedure used to administer LCTOPC1, and/or the concomitant immunosuppression administered AND 2) the AE could be explained either by exposure to the investigational product or equally well by factors or causes other than exposure to the investigational product. Adverse events were monitored by the External Medical Monitor, Sponsor Medical Monitor, and DSMB.
# [3] = tested on: dorsal funicular lesion (DFL) SCI model; settings: cited from earlier work
Molecule,"Hypomagnesemia: Days from Injection ([1]; both, human, in vivo) [days]","Nausea: Days from Injection ([1]; both, human, in vivo) [days]","Decreased Appetite: Severity ([1]; both, human, in vivo, 365 days)","Hypomagnesemia: Severity ([1]; both, human, in vivo, 365 days)","Nausea: Severity ([1]; both, human, in vivo, 365 days)",Bacterial infection: Days from Injection ([1]; causality Tacrolimus) [days],Bacterial infection: Outcome ([1]; causality Tacrolimus),Bacterial infection: Severity ([1]; causality Tacrolimus),Decreased Appetite: Outcome ([1]; in vivo),Hypomagnesemia: Outcome ([1]; in vivo),Nausea: Outcome ([1]; in vivo),Grade 1 AEs possibly related specifically to tacrolimus (number) [2],Grade 2 AEs possibly related specifically to tacrolimus (number) [2],"AEs possibly related specifically to the immunosuppression (number of the 25) ([2]; tacrolimus to Day 60, trough 3 to 7 ng/mL)","Acute scarring and wound cavitation ([3]; DFL SCI model, adult rats)","Axonal regrowth ([3]; acute and chronic experiments, vs PBS-treated DFL)","Inflammation, glial scar formation and CSPG expression ([3]; after acute spinal cord injury)"
"C=CC[C@@H]1/C=C(\C)C[C@H](C)C[C@H](OC)[C@H]2O[C@@](O)(C(=O)C(=O)N3CCCC[C@H]3C(=O)O[C@H](/C(C)=C/[C@@H]3CC[C@@H](O)[C@H](OC)C3)[C@H](C)[C@@H](O)CC1=O)[C@H](C)C[C@@H]2OC [Tacrolimus, tacrolimus]",5 to 43,7,Grade 2,Grade 1-2,Grade 2,30,Resolved,Grade 3,Resolved,Resolved,Resolved,Seven,nine,Sixteen,,,
"Decorin: small leucine-rich proteoglycan, TGF-β1/2 antagonist; recombinant form tested in rat SCI models (protein, UniProt P07585 31-359, looked up) Decorin: DEASGIGPEVPDDRDFEPSLGPVCPFRCQCHLRVVQCSDLGLDKVPKDLPPDTTLLDLQNNKITEIKDGDFKNLKNLHALILVNNKISKVSPGAFTPLVKLERLYLSKNQLKELPEKMPKTLQELRAHENEITKVRKVTFNGLNQMIVIELGTNPLKSSGIENGAFQGMKKLSYIRIADTNITSIPQGLPPSLTELHLDGNKISRVDAASLKGLNNLAKLGLSFNSISAVDNGSLANTPHLRELHLDNNKLTRVPGGLAEHKYIQVVYLHNNNISVVGSSDFCPPGHNTKKASYSGVSLFSNPVQYWEIQPSTFRCVYVRSAIQLGNYK",,,,,,,,,,,,,,,suppressed acute scarring (fibrogenesis) and wound cavitation,promoted axonal regrowth,"inhibit inflammation, glial scar formation and CSPG expression"
